Measurements reported in the NIST ThermoML archive (doi:10.1016/j.jct.2007.06.002).
Values joined by “and” are separate entries in the source; they are usually repeats but may differ in a detail not shown here. Equal values may be shown once.

Key:
[1] = refractive index (Na D-line) (dimensionless); xn = mol fraction of the nth substance listed; settings: 298.15 K, 101 kPa, Liquid
[2] = xn = mol fraction of the nth substance listed; settings: 101 kPa, Liquid
[3] = refractive index (Na D-line) (dimensionless); settings: 298.15 K; 101.33 kPa; Liquid
[4] = 101 kPa, Liquid

CCCCn1cc[n+](C)c1.F[P-](F)(F)(F)(F)F [1-butyl-3-methylimidazolium hexafluorophosphate] + COCCO
[1]
Settings	refractive index
x1 = 0.0037	1.4006
x1 = 0.0078	1.401
x1 = 0.012	1.4013
x1 = 0.0354	1.403
x1 = 0.0801	1.405
x1 = 0.1468	1.4065
x1 = 0.2542	1.4078
x1 = 0.396	1.4083
x1 = 0.6104	1.4086
x1 = 0.8127	1.4086
x1 = 0.8961	1.4089
x1 = 0.9345	1.409
x1 = 0.9749	1.409
x1 = 1	1.4089

mass density [kg/m3], [2]
Settings	298.15 K	308.15 K	318.15 K
x1 = 0.0037	964.55	962.53	945.96
x1 = 0.0078	969.43	967.34	950.88
x1 = 0.012	974.36	972.19	955.82
x1 = 0.0354	1000.13	997.66	981.7
x1 = 0.0801	1042.78	1039.97	1024.48
x1 = 0.1468	1094.24	1091.12	1076.09
x1 = 0.2542	1157.35	1153.41	1139.53
x1 = 0.396	1219.08	1213.6	1201.72
x1 = 0.6104	1284.64	1277.88	1267.48
x1 = 0.8127	1328.13	1320.65	1311.1
x1 = 0.8961	1344.77	1336.68	1327.9
x1 = 0.9345	1352.85	1344.49	1336
x1 = 0.9749	1361.9	1353.35	1344.99
x1 = 1	1367.88	1359.33	1350.87

CCCCn1cc[n+](C)c1.F[P-](F)(F)(F)(F)F [1-butyl-3-methylimidazolium hexafluorophosphate]
Settings	refractive index
[3]	1.4089 and 1.4058

[4]
Settings	mass density [kg/m3]
298.15 K	1367.88
308.15 K	1359.33
318.15 K	1350.87

COCCOC [1,2-dimethoxyethane]
Settings	refractive index
[3]	1.379

[4]
Settings	mass density [kg/m3]
298.15 K	864.47
308.15 K	853.47
318.15 K	842.27

CCCCn1cc[n+](C)c1.F[P-](F)(F)(F)(F)F [1-butyl-3-methylimidazolium hexafluorophosphate] + COCCOC
Settings	refractive index
[1], x1 = 1	1.4089

[2], x1 = 1
Settings	mass density [kg/m3]
298.15 K	1367.88
308.15 K	1359.33
318.15 K	1350.87

COCCOCCOC [2,5,8-trioxanonane] + CCCCn1cc[n+](C)c1.F[P-](F)(F)(F)(F)F
[1]
Settings	refractive index
x2 = 0	1.4058
x2 = 0.0039	1.4063
x2 = 0.0076	1.4065
x2 = 0.0127	1.407
x2 = 0.0304	1.4081
x2 = 0.0505	1.4092
x2 = 0.1003	1.4113
x2 = 0.1617	1.4141
x2 = 0.207	1.4149
x2 = 0.3024	1.4148
x2 = 0.4018	1.4142
x2 = 0.5023	1.4138
x2 = 0.5623	1.4123
x2 = 0.7197	1.4098
x2 = 0.9477	1.4094
x2 = 0.9842	1.4089

mass density [kg/m3], [2]
Settings	298.15 K	308.15 K	318.15 K
x2 = 0	939.1	929.6	919.3
x2 = 0.0039	942.16	932.57	922.34
x2 = 0.0076	945.03	935.37	925.2
x2 = 0.0127	948.97	939.22	929.13
x2 = 0.0304	962.27	952.3	942.43
x2 = 0.0505	976.74	966.73	957.03
x2 = 0.1003	1010.23	1000.46	990.93
x2 = 0.1617	1047.81	1038.53	1028.98
x2 = 0.207	1073.6	1064.59	1055.02
x2 = 0.3024	1124.55	1115.44	1106.04
x2 = 0.4018	1173.96	1164.58	1155.65
x2 = 0.5023	1219.47	1210.5	1202.05
x2 = 0.5623	1243.6	1235.27	1226.97
x2 = 0.7197	1292.24	1286.05	1277.69
x2 = 0.9477	1345.16	1336.93	1328.47
x2 = 0.9842	1359.24	1351.31	1342.85
x2 = 0.9952	1365.36	1356.87	1348.47

COCCO [2-methoxyethan-1-ol]
Settings	refractive index
[3]	1.4004

[4]
Settings	mass density [kg/m3]
298.15 K	960.05
308.15 K	950.81
318.15 K	941.45

COCCOC [1,2-dimethoxyethane] + CCCCn1cc[n+](C)c1.F[P-](F)(F)(F)(F)F
[1]
Settings	refractive index
x2 = 0	1.379
x2 = 0.0041	1.3781
x2 = 0.0125	1.3798
x2 = 0.0416	1.3859
x2 = 0.1055	1.3926
x2 = 0.1219	1.3941
x2 = 0.2474	1.4009
x2 = 0.3744	1.4043
x2 = 0.4937	1.4062
x2 = 0.7092	1.4076
x2 = 0.9329	1.4087

mass density [kg/m3], [2]
Settings	x2 = 0	x2 = 0.0125	x2 = 0.0416	x2 = 0.1055	x2 = 0.1219	x2 = 0.2474	x2 = 0.3744	x2 = 0.4937	x2 = 0.7092	x2 = 0.9329
298.15 K	864.47	879.28	912.09	976.53	991.51	1089.14	1164.22	1219.89	1296.36	1353.78
308.15 K	853.47	868.36	901.37	966.23	981.31	1079.57	1155.09	1211.03	1287.72	1345.27
318.15 K	842.27	857.25	890.47	955.79	971	1069.97	1145.98	1202.22	1279.25	1336.85

COCCO [2-methoxyethan-1-ol] + CCCCn1cc[n+](C)c1.F[P-](F)(F)(F)(F)F
Settings	refractive index
[1], x2 = 0	1.4004

[2], x2 = 0
Settings	mass density [kg/m3]
298.15 K	960.05
308.15 K	950.81
318.15 K	941.45

CCCCn1cc[n+](C)c1.F[P-](F)(F)(F)(F)F [1-butyl-3-methylimidazolium hexafluorophosphate] + COCCOCCOC
Settings	refractive index
[1], x1 = 1	1.4058

[2], x1 = 1
Settings	mass density [kg/m3]
298.15 K	1367.88
308.15 K	1359.33
318.15 K	1350.87

COCCOCCOC [2,5,8-trioxanonane]
Settings	refractive index
[3]	1.4058

[4]
Settings	mass density [kg/m3]
298.15 K	939.1
308.15 K	929.6
318.15 K	919.3
